Test results: patent US20080207638A1, “Compounds” (priority 2005, published 2008)
Counter-ions that a name gives are not always drawn.

Tests used:
[1] = Rat pharmacokinetics; assay type: in vivo, male CD Sprague Dawley rats; details: 1 mg/kg i.v., 3 mg/kg oral
Protocol: Compounds were dosed to male CD Sprague Dawley rats by single intravenous or oral administration at a nominal dose level of 1 mgkg^−1 and 3 mgkg^−1 respectively. Compounds were formulated in 5% DMSO/45% PEG200/50% water. An intravenous profile was obtained by taking serial or terminal blood samples at 0.083, 0.25, 0.5, 1, 2, 4, and 7 h post-dose. An oral profile was obtained by taking serial or terminal blood samples at 0.25, 0.5, 1, 2, 4, 7 and 12 h post-dose. Blood samples were taken directly into heparinised tubes. Blood samples were prepared by protein precipitation and subjected to quantitative analysis by LC-MS/MS using compound-specific mass transitions. Drug concentration-time profiles were generated and non-compartmental PK analysis used to generate estimates of half-life, clearance, volume of distribution and oral bioavailability.

[2] = CNS penetration; assay type: in vivo, male CD Sprague Dawley rats; details: male, CD Sprague Dawley, iv; rat, 1 mg/kg i.v., brain 5 min post-dose
Protocol: Compounds were dosed intravenously at a nominal dose level of 1 mgkg−1 to male CD Sprague Dawley rats. Compounds were formulated in 5% DMSO/45% PEG200/50% water. Blood samples were taken under terminal anaesthesia with isoflurane at 5 min post-dose and the brains were also removed for assessment of brain penetration. Blood samples were taken directly into heparinised tubes. Blood samples were prepared for analysis using protein precipitation and brain samples were prepared using extraction of drug from brain by homogenisation and subsequent protein precipitation. The concentration of parent drug in blood and brain extracts was determined by quantitative LC-MS/MS analysis using compound-specific mass transitions.

[3] = Dog pharmacokinetics; assay type: in vivo, male Beagle dogs; details: 1 mg/kg i.v., 2 mg/kg oral
Protocol: Compounds were dosed to male Beagle dogs by single intravenous or oral administration at a nominal dose level of 1 mgkg^−1 and 2 mgkg^−1 respectively. The study was carried out according to a crossover design such that the same dog was used for both dosing events and the dosing events occurred 1 week apart. Compounds were formulated in 5%DMSO/45%Peg2oO/50%water. An intravenous profile was obtained by taking serial blood samples at 0.083, 0.25, 0.5, 0.75, 1, 2, 4, 6 & 12 h post-dose. An oral profile was obtained by taking serial blood samples at 0.25, 0.5, 0.75, 1, 2, 4, 6, 12 & 24 h post-dose. Blood samples were taken directly into heparinised tubes. Blood samples were prepared by protein precipitation and subjected to quantitative analysis by LC-MS/MS using compound-specific mass transitions. Drug concentration-time profiles were generated and non-compartmental PK analysis used to generate estimates of half-life, clearance, volume of distribution and oral bioavailability.

- oral bioavailability [1]: approximately 48 % F
- concentration at 5 min [2]: ~57.5 ng/g
- oral bioavailability [3]: approximately 100 % F
SMILES: C[C@@H]1CCCN1CCCOc1ccc(N2CCN(C(=O)c3ccc(F)cc3F)CC2=O)cc1 [Example E1, 4-[(2,4-Difluorophenyl)carbonyl]-1-[4-({3-[(2R)-2-methyl-1-pyrrolidinyl]propyl)oxy)phenyl]-2-piperazinone, formate salt]
